Test results from patent US20070275969A1, “NANOPARTICLES FOR ORAL ADMINISTRATION OF PHARMACEUTICAL AGENTS OF LOW SOLUBILITY” (priority 1995, published 2007).

Legend:
[1] = half-life in in-vivo pharmaceutical models (mouse); settings: some in-vivo pharmaceutical models (mouse)
Description: (§1) Since then several types of HIV-1 protease inhibitors have become known. […] The latter effect is presently attributed to the extremely low aqueous solubility (8 mg/1000 ml at pH 7.4).

[2] = aqueous solubility of the active agent; format: physicochemical; settings: pH 7.4
Description: as §1

[3] = oral bioavailability; settings: in vivo
Description: as §1

In the case of `COc1ccc(C[C@H](C[C@H](O)[C@H](Cc2ccccc2)NC(=O)OC(C)(C)C)C(=O)N[C@H](C(=O)N[C@@H](Cc2ccccc2)C(=O)N2CCOCC2)C(C)C)cc1` [HIV-1 protease inhibitor (A), 5(S)-tert.-Butoxycarbonyl-amino-4(S)-hydroxy-2(R)-4-methoxyphenylmethyl-6-phenyl-hexanoyl-(L)-Val-(L)-Phe-morpholin-4-ylamide], the half-life [1] is reported as “relatively short half-life”, the aqueous solubility [2] is reported as 8 mg/1000 ml and the oral bioavailability [3] is reported as “insufficient oral bioavailability”.
